# Test results taken from US20250263439A1, “HETERODIMERIC PEPTIDE REAGENTS AND METHODS” (REGENTS OF THE UNIVERSITY OF MICHIGAN, priority 2018, published 2025).
# Several values for one entry are separate records, joined by “and”; a condition that tells them apart may be missing. Equal values may be shown once. Entries after “also recorded” stand apart in the source; their conditions may differ.
# Tests used:
# [1] = tested on: SKBr3 cells; assay: Heterodimer internalization in SKBr3 cells over time (confocal); assay type: cell-based, human
# Description: Using confocal microscopy, images were collected over time to evaluate heterodimer internalization. […] Binding by anti-EGFR-AF568 (yellow) and anti-ErbB2-AF488 (green) to the surface (arrows) of the same cells is shown for comparison. On the merged images, a Pearson's correlation coefficient was measured for the heterodimer with the anti-EGFR antibody (ρ=0.77) and the anti-ErbB2 (ρ=0.65) antibody. […] The DAPI images highlight the location of cell nuclei prior to heterodimer incubation, FIG. 3B. Binding of QRH*-KSP*-E3-Cy5.5 (red) to the cell surface is seen at […]. The heterodimer starts to internalize at 4 min, and complete internalization is seen at 40 min.
# [2] = tested on: OE33 human esophageal adenocarcinoma cells; assay: Confocal microscopy binding of heterodimer versus monomers to OE33 cells; assay type: cell-based
# [3] = tested on: OE33 cells; assay: Apparent association time constant by flow cytometry with OE33 cells; assay type: binding, human
# Description: The apparent association time constant (Ka) was measured to assess binding kinetics to OE33 cells. OE33 cells were grown to about 80% confluence in 10 cm dishes, and cells were then detached with PBS-based cell dissociation buffer (Invitrogen). About 10^5 cells were incubated with 1 μM of the heterodimer at 4° C. for different time periods ranging from […]. The cells were centrifuged, washed with cold PBS, and fixed with 4% PFA. Flow cytometry was performed, and the median fluorescence intensity (y) was ratioed with that of OE33 cells without addition of peptide at time points (t) using Flowjo software. The rate constant K was calculated by fitting the data to the first-order kinetics model, y(t)=Imax[1−exp^(−kt)], where Imax=maximum value, using Prism 5.0 software.
# [4] = Acute toxicity, histology (H&E) of major organs; assay type: in vivo, mice; conditions: brain, heart, kidney, liver, spleen and lung; after day 15
# Description: Optical imaging was performed in nude mice bearing xenograft tumors in vivo to characterize pharmacokinetics and assess toxicity. All experimental procedures were performed in accordance with relevant guidelines and regulations of the University of Michigan, and all animal studies were conducted with approval by the University Committee on the Use and Care of Animals (UCUCA). Animals were housed per guidelines of the Unit for Laboratory Animal Medicine (ULAM).
# [5] = tested on: SKBr3 cells; assay: Confocal microscopy binding of Cy5.5-labeled heterodimer linker configurations to SKBr3 cells; assay type: cell-based, human; conditions: linkers E2, Hex, E3, E6, E10
# Description: The two monomers were combined in a heterodimer configuration using a variable linker designed with either a PEG spacer that ranged in size from 17-74 atoms or a hydrophobic 6-aminohexonic acid linker in the α-, ξ-amino groups of the second lysine. The linker length was varied to determine the optimal spacing between monomers to maximize binding to the intended targets. Using confocal microscopy, binding for each Cy5.5-labeled heterodimer configuration to human breast cancer cells SKBr3 that overexpress both EGFR and ErbB2 was evaluated, FIG. 1B.
# Hydrophilicity was good as well. Western blot analysis was used to show relative EGFR and ErbB2 expression levels, FIG. 1D. Western blot was performed by lysing cells in Pierce® RIPA lysis buffer containing Halt™ protease inhibitor cocktail (#87786, Thermo Scientific) for 30 min on ice. The lysates were centrifuged at 10,000 rpm for 10 min at 4° C. A BSA protein assay kit (#23227, Thermo Scientific) was used to quantify protein concentration in the supernatant. Aliquots of protein (10 μL) were used for electrophoresis on NuPAGE™ 4-12% Bis-Tris gels (#17031471, Invitrogen) followed by electrophoretic transfer onto membranes (#ISEQ00010, Merck Millipore Ltd). […]
# [6] = tested on: Barrett's neoplasia (HGD and EAC); assay: Confocal microscopy of human esophageal specimens ex vivo
# Description: The fluorescence intensities from the human esophageal specimens were fit according to 4 histological classifications, including squamous (SQ), Barrett's esophagus (BE), high-grade dysplasia (HGD), and esophageal adenocarcinoma (EAC), and used a one-way ANOVA and used Tukey's multiple comparisons. Co-localization of peptide and antibody binding was evaluated using Pearson's correlation coefficient.
# Using confocal microscopy, specific heterodimer binding to Barrett's neoplasia was validated on human specimens ex vivo. Formalin-fixed, paraffin-embedded (FFPE) specimens of human esophagus were obtained from the archived tissue bank in the Department of Pathology, University of Michigan. The tissues were cut into […], deparaffinized, and rehydrated using standard conditions. Two-step acidic and protease-based antigen retrieval was performed. The sections were blocked with protein serum for 10 min at RT followed by rinsing with PBS, and then incubated with the heterodimer (0.5 μM) for ten min in dark conditions at RT. The sections were then washed for three min 3× with PBS and further incubated sequentially with 1:200 dilution of EGFR monoclonal antibody (H11, #MA5-13070, Invitrogen) and 1:500 goat anti-mouse IgG (H+L) AF-568-labeled secondary antibody (#A-11004, Thermo Fisher Scientific), 1:500 dilution of ErbB2 primary antibody (#29D8, rabbit monoclonal antibody #2165S, Cell Signaling Inc), and 1:1000 goat anti-rabbit IgG (H+L) AF-488-labeled secondary antibody (#A11008, Life Technologies Corp). Each antibody was incubated for 1 hour at RT. Sections were washed with TBST 3× and mounted with Prolong Gold reagent containing DAPI (Invitrogen) using #1 cover glass ([…]). Confocal fluorescence microscopy was performed using DAPI, AF488, AF568 and Cy5.5 filter sets. Image quantification was performed by placing 3 boxes with dimensions of 20×20 μm^2 completely within cells found in the epithelium. Mean fluorescence intensities were measured using custom Matlab software (Mathworks). Regions of saturated intensities were avoided.
substance,measurement,setting,value
"heterodimer of QRHKPRE (SEQ ID NO: 1) and KSPNPRF (SEQ ID NO: 2) with E3 (triethyleneglycol) linker, Cy5.5 label [QRH*-KSP*-E3-Cy5.5]",time at which heterodimer starts to internalize,[1],4 min and 8 to 20 min
same,time of complete internalization / strong signal inside cells,[1],40 min
same,greater fluorescence intensity compared with either monomer alone,[2],3 fold
same,apparent association time constant Ka,"[3]; flow cytometry, 1 μM, 4° C.",0.22 min⁻¹
same,apparent association time constant (time),[3]; value in brackets after Ka,4.5 min
same,acute toxicity on histology (H&E),[4],no sign of acute toxicity
same,mean signal among heterodimer linker configurations,[5],largest signal
same,staining of high-grade dysplasia (HGD) and esophageal adenocarcinoma (EAC),[6]; human specimens ex vivo,increased signal; also recorded: increased staining intensity
same,staining of squamous (SQ) and Barrett's esophagus (BE),[6]; human specimens ex vivo,Minimal fluorescence signal; also recorded: minimal staining
same,mean fluorescence intensity of neoplasia compared with BE and SQ,"[6]; n=31, 8, 23, and 12 specimens of SQ, BE, HGD, EAC",significantly greater mean fluorescence intensity
